One test concerns ACE. The conditions noted are these: cited from earlier work; for IC50: read-out: IC50, ACE inhibition. From the text: Marine species account for about half of the world’s total biodiversity. This diversity, together with the availability of marine resources, have driven the search for new antihypertensive agents, which could be administered as functional foods or dietary supplements. Since the first discovery of a marine-derived peptide with ACE-inhibitory activity, researchers have identified a variety of antihypertensive peptides in hydrolysates from marine species, such as Synodus macrops

Test [1] addresses T1, ACE (from rabbit lung) (Oryctolagus cuniculus, UniProt P12822).
T1 construct: ACE (from rabbit lung); purchased Sigma Chemicals Co. (St. Louis, MO, USA); host or cells: rabbit lung tissue
T1 sequence (P12822 34-1310): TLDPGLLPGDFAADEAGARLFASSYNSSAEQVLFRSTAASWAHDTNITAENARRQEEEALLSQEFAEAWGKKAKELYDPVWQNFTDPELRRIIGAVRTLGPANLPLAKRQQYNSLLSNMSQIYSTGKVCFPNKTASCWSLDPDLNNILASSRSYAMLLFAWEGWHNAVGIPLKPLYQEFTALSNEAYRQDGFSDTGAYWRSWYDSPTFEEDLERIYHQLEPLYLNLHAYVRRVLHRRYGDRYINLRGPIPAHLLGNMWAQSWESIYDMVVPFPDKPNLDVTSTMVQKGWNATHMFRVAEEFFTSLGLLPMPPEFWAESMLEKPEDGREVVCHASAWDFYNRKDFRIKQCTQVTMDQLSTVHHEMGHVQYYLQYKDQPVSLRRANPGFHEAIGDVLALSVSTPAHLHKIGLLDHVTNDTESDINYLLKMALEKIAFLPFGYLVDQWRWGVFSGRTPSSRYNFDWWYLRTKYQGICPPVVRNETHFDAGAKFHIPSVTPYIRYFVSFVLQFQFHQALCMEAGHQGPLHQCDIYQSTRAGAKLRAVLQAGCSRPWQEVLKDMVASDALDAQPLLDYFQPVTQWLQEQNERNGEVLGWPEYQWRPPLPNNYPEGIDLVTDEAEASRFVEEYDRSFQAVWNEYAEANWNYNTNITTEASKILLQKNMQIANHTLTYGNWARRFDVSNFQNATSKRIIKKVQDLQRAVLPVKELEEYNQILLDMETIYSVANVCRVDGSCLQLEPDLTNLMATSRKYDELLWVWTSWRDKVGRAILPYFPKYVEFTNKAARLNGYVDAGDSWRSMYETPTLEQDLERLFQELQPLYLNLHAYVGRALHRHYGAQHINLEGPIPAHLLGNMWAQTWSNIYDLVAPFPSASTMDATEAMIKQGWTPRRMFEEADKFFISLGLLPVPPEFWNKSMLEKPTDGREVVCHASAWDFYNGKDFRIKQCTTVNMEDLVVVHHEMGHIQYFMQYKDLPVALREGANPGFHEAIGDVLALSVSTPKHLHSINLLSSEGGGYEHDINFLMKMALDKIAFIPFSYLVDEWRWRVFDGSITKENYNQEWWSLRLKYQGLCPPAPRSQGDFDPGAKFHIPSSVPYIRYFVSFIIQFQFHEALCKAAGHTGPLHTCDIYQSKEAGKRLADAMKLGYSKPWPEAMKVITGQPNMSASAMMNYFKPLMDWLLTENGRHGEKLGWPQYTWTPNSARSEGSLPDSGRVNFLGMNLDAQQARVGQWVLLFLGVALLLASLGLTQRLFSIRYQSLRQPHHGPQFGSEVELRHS
The test is described as follows: Stability of ACE inhibitory activity in simulated gastric and intestinal fluid. The conditions noted are these: read-out: ACE inhibitory activity of the control (undigested peptide). The test is classed as in vitro ADME.
Description: Simulated gastric fluid (SGF[sp]): Concentrated hydrochloric acid (37%) was diluted to a 9.5% to 10.5% solution. Then, 800 mL of water and 10 g of pepsin were added to 16.4 mL of this diluted hydrochloric acid solution, mixed well, and the volume completed to 1000 mL with water.
Simulated intestinal fluid (SIF[sp]): 6.8 g of KH2PO4 was dissolved in 500 mL of water, and the pH was adjusted to 6.8 with 0.1 M NaOH. Then ten grams of trypsin were dissolved in an appropriate amount of water, added to the solution described above, and diluted to 1000 mL with water.
The in vitro stability of the ACE inhibitory peptide in the simulated gastrointestinal environments was determined according to the method described by Yu et al [68]. […] (0.5 mg/mL) and incubated for 2 h at 37.5 °C. In addition, the peptide solution was first incubated with SGF[sp] at 37.5 °C for 2 h, the solvent was removed by means of a centrifugal filter concentrator, and was then incubated with SIF[sp] for 2 h. The reaction mixtures were then boiled to inactivate the enzyme. After cooling to room temperature, samples were centrifuged at −4 °C (10000 rpm, 15 min) and the supernatant was adjusted to pH = 7 for the determination of the ACE inhibitory activity.

The target in test [2] is T1, ACE (from rabbit lung). Put plainly: ACE inhibitory activity (HHL substrate, HPLC of hippuric acid). Particulars: synthetic peptide, 37.5 °C 1 h, HPLC 228 nm, read-out: IC50 value, ACE inhibition. The test is classed as biochemical. From the text:
Trypsin (from bovine pancreas, 200 U/mg) and pepsin (from porcine gastric mucosa, 300 U/mg) were purchased from YTHX Biotechnology Co., Ltd. (Beijing, China). ACE (from rabbit lung), and the ACE synthetic substrate hippuryl-L-histidyl-L-leucine (HHL) were purchased from Sigma Chemicals Co. (St. Louis, MO, USA). Other chemicals and reagents used were of analytical grade, except acetonitrile and trifluoroacetic acid (TFA), which were HPLC grade (Sinopharm Chemical Reagent Co., Ltd, Shanghai, China).
To determine the ACE inhibitory activity, we used the method described by D.W.Cushman and Lisete Paiva, with slight modifications. Briefly, 120 μL of 5 mM HHL solution and 20 μL of 1 mg/mL sample solution were mixed thoroughly and pre-incubated for 5 min at 37.5 °C. The control was prepared by replacing the sample solution with 20 μL of 300 mM NaCl in 100 mM borate buffer (pH 8.3). Then, 10 μL of ACE (0.1 U/mL) solution was added, tubes were mixed well, and incubated at 37.5 °C for 1 h in a water bath. […] The reaction solutions were then filtered through a 0.45 μm microporous membrane and quantified by using a ZORBAX SB-C18 analytical column (4.6 mm × 250 mm, 5 μm, 25 °C) and an Agilent HPLC ChemStation, consisting of a G1311C quaternary pump VL, a G1329B standard autosampler, a G1316A column oven, and a G1314F variable wavelength detector. […] Hippuric acid (HA) was detected at 228 nm. […]

[3] abbreviates: from scorpion (Hemiscorpius lepturus) venom.

Like-named read-outs stand apart in the source and are kept apart here. Ends that are not written are not given here.

For the substance AFPYYGHHLG, the ACE inhibition mode entry in the test with ACE (setting [3]) is recorded as “competitive”.

For the substance “AGPPGSDGQPGAK [antihypertensive peptide from Synodus macrops hydrolysate]”, in the test with ACE (peptide from Synodus macrops), the IC50 is 420 µM.

For Arg-Tyr-Leu [RYL], in the test with ACE (from Silkworm Pupa), the ACE inhibition mode entry was “competitive”.

Take “IGPR [antihypertensive peptide from Salmo salar]”: the IC50 in the test with ACE (peptides from Salmo salar) was 430 µM.

Consider “SSSKAKKMP [antihypertensive peptide from shrimps]”, for which the IC50 in the test on ACE (peptide from shrimps) was 880 µM.

For the substance Tyr-Gln-Lys [YQK], the ACE inhibition mode result in the test with ACE (from bovine casein) is recorded as “competitive”.

For VVSLSIPR, the ACE inhibition mode entry in the test with ACE (from pigeon pea (Cajanus cajan)) is recorded as “competitive”.

For WPMGF [WPMGF, Trp-Pro-Met-Gly-Phe], the inhibition at 500 µg/mL at ACE (from rabbit lung) [1] is 51.5 ± 0.72%. The IC50 at ACE (from rabbit lung) [2] came out at 789 µM.

Consider YLYELAR [YLYELAR], for which, in the test with ACE (setting [3]), the ACE inhibition mode entry is “competitive”.

Broadly, the IC50 is the midpoint of a concentration-inhibition curve.

The values are drawn from publication PMC6265983, “Identification and Molecular Docking Study of a Novel Angiotensin-I Converting Enzyme Inhibitory Peptide Derived from Enzymatic Hydrolysates of Cyclina sinensis” (Marine Drugs, 2018).
